What was measured:
[1] = system: keratinocytes and keratinocyte-derived cells; assay: Adhesion of keratinocytes and keratinocyte-derived cells to fibronectin; format: cell-based; details: fibronectin substrate
Excerpt: (§1) Keratinocyte motility on a fibronectin substrate is critical in the reepithelialization of healing wounds, and in the spread of cutaneous malignancy. We discovered that gangliosides GT1b and GD3 inhibit the adhesion to and migration of keratinocytes and keratinocyte-derived cells on fibronectin (See, Paller, A. S., et al., J. Invest. Dermatol., 105:237-242 (1995); Sung, C-C., et al., Exp. Cell Res., 239:311-319 (1998); Wang, X-Q, et al., J. Biol. Chem., 276(48):44504-44511 (2001) each incorporated by reference). Conversely, endogenous depletion of gangliosides through sialidase gene modulation leads to increased adhesion of the cells to fibronectin and vitronection. Gangliosides also trigger the apoptosis of keratinocytes when plated on a fibronectin matrix.

[2] = system: keratinocytes and keratinocyte-derived cells; assay: Migration of keratinocytes and keratinocyte-derived cells on fibronectin; format: cell-based; details: fibronectin substrate
Excerpt: as §1

keratinocyte a5b1 = biological target: T1, keratinocyte a5b1 (Homo sapiens, UniProt P05556+P08648); assay: Direct interaction of ganglioside with keratinocyte a5b1; format: binding; details: through carbohydrate moieties
T1 construct: endogenous in cells; host or cells: keratinocytes
Excerpt: (§2) The ganglioside specifically interacts through carbohydrate moieties, with preference for the a5 subunit of the a5b1. […] Although any interaction between ganglioside and integrin b1 is much weaker, GT1b is able to bind b1 and, by doing so, inhibits b1 phosphorylation and serine/threonine phosphorylation.

FAK = assay: Phosphorylation of FAK; format: cell-based
Excerpt: as §2

integrin-linked kinase = assay: Phosphorylation of integrin-linked kinase; format: cell-based
Excerpt: as §2

Integrin avb3 = Integrin avb3 (Homo sapiens, UniProt P05106+P06756); assay: Binding of ganglioside to integrin avb3
adhesion to vitronectin = assay: Adhesion to vitronectin; format: cell-based
Excerpt: as §2

MMP-2 = MMP-2 expression and activity in keratinocyte-derived SCC12 cells; format: cell-based
Experimental: (§3) In contrast, inhibitors of protein kinase C (PKC) decrease the expression of TIMP-1 in SCC12 cells without altering MMP-9 expression. […] When both activators of PKC and gangliosides GT1b or GD3 are incubated together with the SCC12 cells, no change in the expression or activity of MMP-2 is noted. These studies provide evidence that more highly sialylated gangliosides modulate MMP-2 expression and activity in keratinocytes through a mechanism that involves suppression of the PKC signaling pathway.

skin cells = assay: Proliferation of skin cells; format: cell-based
Excerpt: One manifestation of basal cell and squamous cell cancers of the skin, psoriasis, and genetic disorders of skin overgrowth, such as certain forms of ichthyosis, is excessive proliferation of skin. In our experiments, we have noted that alterations in ganglioside content, whether by pharmacologic manipulation or endogenous alteration through gene therapy, also affect the growth of skin cells. […] We have now determined that a decrease in the same gangliosides would increase the proliferation of skin cells; in fact, we have determined that transfection of a sialidase gene that cleaves the sialic acid group(s) from all gangliosides results in total ganglioside depletion, and leads to increased proliferation of skin cells. […] We believe that a number of other gangliosides have similar effects, as described below, and could be used in therapeutic treatments.

[3] = biological target: T2, epidermal growth factor receptor (Homo sapiens, UniProt P00533); assay: Direct binding of ganglioside to the epidermal growth factor receptor in keratinocytes
T2 construct: epidermal growth factor receptor in keratinocytes; endogenous in cells; host or cells: keratinocytes
Excerpt: (§4) The mechanism for the overgrowth of skin cells depleted of gangliosides and for the inhibition of growth of skin cells with increased ganglioside GM3 is decreased availability of the epidermal growth factor receptor for binding to its ligands (epidermal growth factor and transforming growth factor-α). […] Also affected are downstream components in the epidermal growth factor signaling transduction pathway, e.g. GM3 downregulates the phosphorylation of MAP kinase and PI3 kinase.

MAP kinase = assay: Phosphorylation of MAP kinase (EGF signalling pathway); format: cell-based
Excerpt: as §4

PI3 kinase = assay: Phosphorylation of PI3 kinase (EGF signalling pathway); format: cell-based
Excerpt: as §4

TIMP-1 = TIMP-1 expression in keratinocyte-derived cells; format: cell-based
Experimental: as §3

MMP-9 = MMP-9 expression and activity in keratinocyte-derived cells; format: cell-based
Experimental: as §3

TIMP-2 = TIMP-2 expression in keratinocyte-derived SCC12 cells; format: cell-based
Experimental: as §3

integrin b1 [4] = biological target: T3, integrin b1 (Homo sapiens, UniProt P05556); assay: Binding of ganglioside to integrin b1
Excerpt: as §2

integrin b1 [5] = biological target: T3, integrin b1; assay: Phosphorylation of integrin b1; format: cell-based
Excerpt: as §2

[6] = system: explant cultures from patients with psoriasis; assay: Attachment of explant cultures from patients with psoriasis; format: cell-based
Excerpt: The interaction of a5b1 and fibronectin is considered critical for embryonic development of skin, healing of wounds and spread of cutaneous malignancies. In addition, it is known in the art that cells from patients with psoriasis have shown increased adherence to fibronectin and a decreased ability to undergo apoptosis. […] Integrin avb3 plays a vital role in the development and proliferation of blood vessels in skin; increased activity leads to neovascularization, while inhibition can inhibit new vessel formation. Thus, an increase in more complex skin gangliosides, particularly GT1b, may be novel agents for treating psoriasis or in inhibiting vascular-dependent processes, such as the rapid growth of hemangiomas in infants. In contrast, depletion of gangliosides (e.g., through increased local sialidase activity) may encourage wound healing, through increasing the migration of keratinocytes, increasing keratinocyte proliferation, and encouraging angiogenesis. Thus, the invention includes administering gangliosides including but not limited to GT1b and GD3, and other agents that affect the amount and action of these gangliosides, to control fibronectin interactions.

[7] = ganglioside incubated together with activators of PKC, SCC12 cells
[8] = keratinocyte-derived SCC12 cells
[9] = pharmacologic addition to normal keratinocyte-derived cells

T3 sequence (P05556 21-798): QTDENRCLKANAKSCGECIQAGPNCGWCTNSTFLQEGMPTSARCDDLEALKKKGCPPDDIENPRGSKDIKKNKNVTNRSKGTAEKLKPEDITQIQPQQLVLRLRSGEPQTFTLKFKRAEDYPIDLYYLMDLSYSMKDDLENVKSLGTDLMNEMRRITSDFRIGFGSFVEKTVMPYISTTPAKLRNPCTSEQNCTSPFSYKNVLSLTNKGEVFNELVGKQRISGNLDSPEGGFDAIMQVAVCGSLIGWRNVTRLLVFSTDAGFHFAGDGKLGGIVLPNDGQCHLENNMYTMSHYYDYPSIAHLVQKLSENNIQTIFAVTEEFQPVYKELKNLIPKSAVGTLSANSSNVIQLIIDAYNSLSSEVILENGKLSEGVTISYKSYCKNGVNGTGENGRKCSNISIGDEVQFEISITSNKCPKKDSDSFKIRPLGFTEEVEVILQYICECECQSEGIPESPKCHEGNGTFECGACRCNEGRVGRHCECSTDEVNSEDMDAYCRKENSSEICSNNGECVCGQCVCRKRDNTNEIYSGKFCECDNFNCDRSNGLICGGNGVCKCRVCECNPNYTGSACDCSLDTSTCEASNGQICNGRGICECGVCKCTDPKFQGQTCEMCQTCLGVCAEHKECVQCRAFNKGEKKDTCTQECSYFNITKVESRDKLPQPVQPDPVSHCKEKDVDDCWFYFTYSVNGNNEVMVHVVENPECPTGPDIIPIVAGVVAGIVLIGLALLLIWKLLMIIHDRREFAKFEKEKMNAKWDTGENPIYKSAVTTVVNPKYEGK
T3 sequence (P08648 42-894 partner limits assumed): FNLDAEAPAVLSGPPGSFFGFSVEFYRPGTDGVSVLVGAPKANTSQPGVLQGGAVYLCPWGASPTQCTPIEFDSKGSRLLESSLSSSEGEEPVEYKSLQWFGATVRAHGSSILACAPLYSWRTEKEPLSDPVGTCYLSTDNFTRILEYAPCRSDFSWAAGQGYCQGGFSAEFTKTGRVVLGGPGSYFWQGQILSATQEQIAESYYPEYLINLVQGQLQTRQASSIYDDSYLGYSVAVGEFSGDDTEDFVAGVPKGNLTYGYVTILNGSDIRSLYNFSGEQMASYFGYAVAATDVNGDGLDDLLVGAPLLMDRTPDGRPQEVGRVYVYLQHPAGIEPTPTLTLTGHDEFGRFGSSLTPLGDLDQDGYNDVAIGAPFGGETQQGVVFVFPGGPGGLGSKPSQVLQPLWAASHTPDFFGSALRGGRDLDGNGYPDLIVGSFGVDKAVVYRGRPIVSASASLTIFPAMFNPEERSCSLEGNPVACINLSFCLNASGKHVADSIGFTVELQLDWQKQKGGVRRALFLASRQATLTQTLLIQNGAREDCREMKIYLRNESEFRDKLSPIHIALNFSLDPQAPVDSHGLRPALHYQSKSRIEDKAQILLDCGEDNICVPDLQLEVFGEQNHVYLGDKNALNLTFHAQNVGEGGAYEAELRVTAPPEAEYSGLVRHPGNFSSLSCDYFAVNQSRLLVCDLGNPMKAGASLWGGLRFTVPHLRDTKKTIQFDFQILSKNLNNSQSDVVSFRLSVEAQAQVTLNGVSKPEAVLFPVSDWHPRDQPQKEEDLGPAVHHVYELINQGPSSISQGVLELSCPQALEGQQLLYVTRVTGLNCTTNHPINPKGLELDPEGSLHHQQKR
T3 sequence (P08648 895-1049 partner limits assumed): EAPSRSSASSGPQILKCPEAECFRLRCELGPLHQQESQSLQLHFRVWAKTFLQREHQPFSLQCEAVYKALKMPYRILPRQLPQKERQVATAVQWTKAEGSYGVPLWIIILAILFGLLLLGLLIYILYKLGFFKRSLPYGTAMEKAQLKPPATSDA
T1 sequence (P08648 42-894 limits assumed): as the sequence (P08648 42-894 partner limits assumed) above
T1 sequence (P08648 895-1049 limits assumed): as the sequence (P08648 895-1049 partner limits assumed) above
T1 sequence (P05556 21-798): as the sequence (P05556 21-798) above
Sequence of Integrin avb3 (P06756 31-889 limits assumed): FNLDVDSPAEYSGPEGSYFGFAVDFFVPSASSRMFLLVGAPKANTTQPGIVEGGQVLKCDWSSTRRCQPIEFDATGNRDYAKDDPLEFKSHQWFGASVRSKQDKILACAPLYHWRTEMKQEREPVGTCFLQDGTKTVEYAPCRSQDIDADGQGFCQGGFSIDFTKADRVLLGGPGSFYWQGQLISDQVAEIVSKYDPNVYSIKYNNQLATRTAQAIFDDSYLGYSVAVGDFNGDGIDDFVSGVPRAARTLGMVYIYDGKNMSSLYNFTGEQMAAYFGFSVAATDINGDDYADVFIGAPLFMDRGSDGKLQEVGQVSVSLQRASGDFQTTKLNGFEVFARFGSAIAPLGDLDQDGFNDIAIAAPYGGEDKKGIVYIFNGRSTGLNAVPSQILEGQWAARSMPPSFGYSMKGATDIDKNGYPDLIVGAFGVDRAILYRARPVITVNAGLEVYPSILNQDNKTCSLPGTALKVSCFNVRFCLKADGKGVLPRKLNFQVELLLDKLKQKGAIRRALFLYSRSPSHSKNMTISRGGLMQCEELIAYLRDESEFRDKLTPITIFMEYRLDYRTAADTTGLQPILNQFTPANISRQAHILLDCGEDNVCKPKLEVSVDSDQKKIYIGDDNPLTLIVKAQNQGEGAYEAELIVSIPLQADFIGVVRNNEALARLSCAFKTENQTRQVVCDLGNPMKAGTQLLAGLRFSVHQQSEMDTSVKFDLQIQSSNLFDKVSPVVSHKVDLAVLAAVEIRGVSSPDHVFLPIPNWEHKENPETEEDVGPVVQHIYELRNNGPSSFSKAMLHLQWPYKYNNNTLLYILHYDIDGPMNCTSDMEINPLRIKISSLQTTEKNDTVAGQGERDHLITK
Sequence of Integrin avb3 (P06756 891-1048 limits assumed): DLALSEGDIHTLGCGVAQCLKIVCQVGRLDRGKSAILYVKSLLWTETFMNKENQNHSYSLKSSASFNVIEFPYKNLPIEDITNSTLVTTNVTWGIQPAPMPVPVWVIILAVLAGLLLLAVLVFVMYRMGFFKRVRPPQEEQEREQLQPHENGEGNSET
Sequence of Integrin avb3 (P05106 27-788): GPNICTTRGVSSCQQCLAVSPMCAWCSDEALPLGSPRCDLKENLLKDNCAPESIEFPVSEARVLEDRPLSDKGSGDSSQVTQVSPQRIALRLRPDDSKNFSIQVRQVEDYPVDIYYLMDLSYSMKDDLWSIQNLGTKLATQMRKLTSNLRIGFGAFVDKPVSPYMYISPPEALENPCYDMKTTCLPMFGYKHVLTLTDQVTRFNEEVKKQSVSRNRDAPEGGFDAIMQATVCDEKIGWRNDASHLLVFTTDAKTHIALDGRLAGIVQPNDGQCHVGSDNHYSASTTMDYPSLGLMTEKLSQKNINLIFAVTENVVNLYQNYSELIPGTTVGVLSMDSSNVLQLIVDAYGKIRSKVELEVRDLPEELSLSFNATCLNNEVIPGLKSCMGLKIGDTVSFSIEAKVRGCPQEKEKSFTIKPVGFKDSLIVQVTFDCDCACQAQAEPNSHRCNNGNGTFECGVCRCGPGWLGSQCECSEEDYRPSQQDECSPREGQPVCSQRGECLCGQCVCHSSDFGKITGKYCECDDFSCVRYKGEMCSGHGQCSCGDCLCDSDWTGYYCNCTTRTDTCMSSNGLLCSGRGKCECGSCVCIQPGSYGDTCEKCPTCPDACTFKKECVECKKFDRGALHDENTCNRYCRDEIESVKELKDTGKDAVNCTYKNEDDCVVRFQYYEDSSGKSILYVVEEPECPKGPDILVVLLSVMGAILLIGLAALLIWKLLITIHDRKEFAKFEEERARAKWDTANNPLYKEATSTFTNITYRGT

GD3
adhesion of keratinocytes and keratinocyte-derived cells to fibronectin [1]: inhibit
migration of keratinocytes and keratinocyte-derived cells on fibronectin [2]: inhibit
interaction with keratinocyte a5b1 (keratinocyte a5b1): direct interaction
phosphorylation of FAK (FAK): inhibition of phosphorylation
phosphorylation of integrin-linked kinase (integrin-linked kinase): inhibition of phosphorylation
binding to integrin avb3 (Integrin avb3): binds
adhesion to vitronectin (adhesion to vitronectin): limit the adhesion
activity of MMP-2 (MMP-2; [7]): no change
expression of MMP-2 (MMP-2; [7]): no change
activity of MMP-2 (MMP-2; [8]): inhibit
expression of MMP-2 (MMP-2; [8]): inhibit

GM3
proliferation of skin cells (skin cells; pharmacologic addition of ganglioside): inhibit the proliferation
binding to the carbohydrate moieties of the epidermal growth factor receptor [3]: direct binding
phosphorylation of MAP kinase (MAP kinase): downregulates
phosphorylation of PI3 kinase (PI3 kinase): downregulates
expression of TIMP-1 (TIMP-1; [9]): marked suppression
activity of MMP-9 (MMP-9; [9]): without affecting
expression of MMP-9 (MMP-9; [9]): marked suppression

PIP3 [reference compound]
activity of MMP-2 (MMP-2; [8]): increased
expression of MMP-2 (MMP-2; [8]): increased
TIMP-2 expression (TIMP-2): only slightly increase

GT1b
adhesion of keratinocytes and keratinocyte-derived cells to fibronectin [1]: inhibit
migration of keratinocytes and keratinocyte-derived cells on fibronectin [2]: inhibit
interaction with keratinocyte a5b1 (keratinocyte a5b1): direct interaction
phosphorylation of FAK (FAK): inhibition of phosphorylation
phosphorylation of integrin-linked kinase (integrin-linked kinase): inhibition of phosphorylation
binding to integrin b1 (integrin b1 [4]): able to bind
b1 phosphorylation (integrin b1 [5]): inhibits
serine/threonine phosphorylation (integrin b1 [5]; on binding of b1): inhibits
attachment of explant cultures [6]: clear inhibition of attachment
expression of TIMP-1 (TIMP-1; [9]): marked suppression
activity of MMP-9 (MMP-9; [9]): without affecting
expression of MMP-9 (MMP-9; [9]): marked suppression
activity of MMP-2 (MMP-2; [7]): no change
expression of MMP-2 (MMP-2; [7]): no change
activity of MMP-2 (MMP-2; [8]): inhibit
expression of MMP-2 (MMP-2; [8]): inhibit

GD2
binding to integrin avb3 (Integrin avb3): binds
adhesion to vitronectin (adhesion to vitronectin): limit the adhesion

concanavalin A [reference compound]
activity of MMP-2 (MMP-2; [8]): increased
expression of MMP-2 (MMP-2; [8]): increased
TIMP-2 expression (TIMP-2): only slightly increase

epidermal growth factor [reference compound]
proliferation of skin cells (skin cells; added to sialidase-transfected (ganglioside-depleted) cells in culture): further accentuated
expression of TIMP-1 (TIMP-1; SCC12 cells): does not affect
activity of MMP-9 (MMP-9; SCC12 cells): increases its activity
expression of MMP-9 (MMP-9; SCC12 cells): further increased

— patent US20020122795A1, “Compositions containing gangliosides for use in the treatment of skin disorders” (priority 2000, published 2002)
